Experiments:
[1] = tested on: murine hybridoma cell line 7TD1; test: HGF (Hybridoma Growth Factor) assay, growth of hIL-6 dependent hybridoma 7TD1; assay type: cell-based; conditions: murine hybridoma 7TD1, HGF assay
Procedure: Mutant interleukin 6 according to the present invention has also been tested using the classical HGF (Hybridoma Growth Factor) assay for its ability to stimulate growth of the hIL-6 dependent murine hybridoma cell line 7TD1 (Van Snick, J., Cayphas, S., Vink, A., Uyttenhove, C., Coulie, P. G. and Simpson, R. J. (1986) Proc. Natl. Acad. Sci. USA, 83, 9679-9683). The assay was performed taking into account the indications of Fiorillo, M. T., Cabibbo, A., Iacopetti, P., Fattori, E. and Ciliberto, G. (1992) Eur. J. Immunol. 22, 2609-2615.

[2] = tested on: human hepatoma cell line Hep3B; test: CRP-CAT transcription induction assay in transfected human hepatoma Hep3B cells; assay type: cell-based; conditions: ratio of amounts of wild type hIL-6 and mutant giving half maximal stimulation of CRP-CAT in Hep3B cells; wild type = 100%
Procedure: The biological activity of the mutant of interest was determined first of all on cells of human origin. The activity of hIL-6 on human cells was assayed for its ability to enhance transcription from acute phase gene promoters in cells of hepatic origin (Morrone, G., Ciliberto, G., Oliviero, S., Arcone, R., Dente, L., Content, J. and Cortese, R. (1988) J. Biol. Chem. 263, 12554-12558). […]
In particular, human Hep3B cells were transfected with 45-50/ ug of the plasmid -219 CRP-CAT containing the IL-6 responsive element of the CRP promoter gene. […] After 16-18 hours, precipitates were removed, cells were trypsinized, pooled, counted and plated in equal number (10^5 to 3×10^5) in 5 cm diameter petri dishes; 7-9 hours after plating, cells were induced for 36-40 hours with increasing amounts of mutant or wild-type hIL-6. […]
The assay was carried out in duplicate (in triplicate in case of wild type hIL-6) with serial dilutions of two to four independent preparations of mutant. The activity of the mutant, expressed as a percent of wild type hIL-6, was calculated as the ratio between the amount of wild type hIL-6 and the amount of the mutant under examination necessary to give half maximal stimulation.

soluble hIL6 receptor = test: hIL-6R binding (affinity for the soluble hIL6 receptor); parameters: species or system human; conditions: mutant hIL6 produced in E. coli
Source text: Affinity for the soluble hIL6 receptor of mutant hIL6 produced in E. coli

S176R: mutant human interleukin 6 with arginine in position 176 in place of serine of wild interleukin 6 [Mutation S176R]
ability to stimulate growth of hIL-6 dependent 7TD1 cells, with respect to the wild type [1]: significant increase in biological activity
Biological activity (% of wt hIL-6) [2]: 370±90 % of wt hIL-6
hIL-6R binding (% of wt hIL-6) (soluble hIL6 receptor): 320 ± 87 % of wt hIL-6
